Tested on: 5α-reductase
Assay: 5α-reductase inhibitory efficacy: DHT produced in testosterone-stimulated dermal papilla cells (DHT ELISA)
Format: cell-based
Conditions: 50 nM testosterone, 24 hours, produced DHT relative to control
Method: After seeding 1 ml of dermal papilla cells (DPCs) by 5×10^5/ml into each well of a 24-well plate, then incubating the same for 24 hours, each of the reaction products prepared according to procedures described in Examples 1 to 72 was added in amounts of 50 μg/ml, 10 μg/ml and 0 μg/ml, respectively, to individual wells. After 1 hour, the wells were subjected to stimulation using 50 nM testosterone (DMSO dissolved). The supernatant was discarded 24 hours after culturing, to thus obtain DPc pellets. A content of dihydrotestosterone (DHT) (DB52021, Hamburg, Germany) was determined by means of enzyme-linked immune-sorbent assay. DPCs cell pellets were seeded in an amount of 100 μL into each of Dihydrotestosterone (DHT) ELISA microtiter strips coated with rabbit anti-DHT antibody, 25 μL of DHT antiserum was seeded in every well, and subjected to a reaction at 2 to 8° C. for 15 to 20 hours, followed by washing the same three times. Thereafter, 100 μL of DHT-HRP enzyme conjugate was seeded in every well and reacted on a shaker at room temperature for 30 minutes, followed by washing the same three times. Furthermore, 100 μL of substrate was seeded in every well and reacted on a shaker at room temperature for 20 to 30 minutes. Then, the product was treated using 100 μL stop solution, and subjected to measurement of absorbance at 450 nm to express an amount of produced DHT by the absorbance (three times repeated). An amount of produced DHT relative to a control was calculated in terms of an inhibitory rate (%), and results thereof are shown in Table 3 below.

Compound	5α-reductase inhibitory rate (%) (sample concentration 10 μg/ml)	5α-reductase inhibitory rate (%) (sample concentration 50 μg/ml)
CC1(C)CC[C@]2(C)CC[C@]3(C)C(=CC[C@@H]4[C@@]5(C)CC[C@H](O)C(C)(C)[C@@H]5CC[C@]43C)[C@@H]2C1 [Compound in Example 1, β-amyrin]	15	28
CC(=O)O[C@H]1CC[C@]2(C)[C@H]3CC=C4[C@@H]5CC(C)(C)CC[C@]5(C)CC[C@@]4(C)[C@]3(C)CC[C@H]2C1(C)C [Compound in Example 2, β-amyrin acetate]	21	34
CC(C)=CC(=O)OC1CCC2(C)C(CCC3(C)C2CC=C2C4CC(C)(C)CCC4(C)CCC23C)C1(C)C (stereo not drawn) [Compound in Example 3, β-amyrin 3-methyl-2-butenate]	28	41
CCCCC(CC)C(=O)OC1CCC2(C)C(CCC3(C)C2CC=C2C4CC(C)(C)CCC4(C)CCC23C)C1(C)C (stereo not drawn) [Compound in Example 4, β-amyrin 2-ethylhexanoate]	36	54
CCCCCCCC(=O)OC1CCC2(C)C(CCC3(C)C2CC=C2C4CC(C)(C)CCC4(C)CCC23C)C1(C)C (stereo not drawn) [Compound in Example 5, β-amyrin octanoate]	41	57
CCCCCCCCCCCCCCCC(=O)O[C@H]1CC[C@]2(C)[C@H]3CC=C4[C@@H]5CC(C)(C)CC[C@]5(C)CC[C@@]4(C)[C@]3(C)CC[C@H]2C1(C)C [Compound in Example 7, β-amyrin palmitate]	53	67
C[C@H]1[C@H](C)CC[C@]2(C)CC[C@]3(C)C(=CC[C@@H]4[C@@]5(C)CC[C@H](O)C(C)(C)[C@@H]5CC[C@]43C)[C@H]12 [Compound in Example 10, α-amyrin]	13	29
CC(=O)O[C@H]1CC[C@]2(C)[C@H]3CC=C4[C@@H]5[C@@H](C)[C@H](C)CC[C@]5(C)CC[C@@]4(C)[C@]3(C)CC[C@H]2C1(C)C [Compound in Example 11, α-amyrin acetate]	31	42
CCCCCCCC(=O)OC1CCC2(C)C(CCC3(C)C2CC=C2C4C(C)C(C)CCC4(C)CCC23C)C1(C)C (stereo not drawn) [Compound in Example 12, α-amyrin octanoate]	35	49
CC[C@H](CC[C@@H](C)[C@H]1CC[C@H]2[C@@H]3CC=C4C[C@@H](O)CC[C@]4(C)[C@H]3CC[C@]12C)C(C)C [Compound in Example 14, β-sitosterol]	11	26
CC[C@H](CC[C@@H](C)[C@H]1CC[C@H]2[C@@H]3CC=C4C[C@@H](OC(C)=O)CC[C@]4(C)[C@H]3CC[C@]12C)C(C)C [Compound in Example 15, β-sitosterol acetate]	21	29
CCCCCCCC(=O)OC1CCC2(C)C(=CCC3C2CCC2(C)C(C(C)CCC(CC)C(C)C)CCC32)C1 (stereo not drawn) [Compound in Example 16, β-sitosterol octanoate]	28	39
CCCCCCCCCCCCCCCCCC(=O)O[C@H]1CC[C@@]2(C)C(=CC[C@H]3[C@@H]4CC[C@H]([C@H](C)CC[C@@H](CC)C(C)C)[C@@]4(C)CC[C@@H]32)C1 [Compound in Example 17, β-sitosterol stearate]	31	42
C[C@H]1[C@H](C)CC[C@]2(C(=O)O)CC[C@]3(C)C(=CC[C@@H]4[C@@]5(C)CC[C@H](O)C(C)(C)[C@@H]5CC[C@]43C)[C@H]12 [Compound in Example 18, ursolic acid]	16	29
CCCCCCCC(=O)OC1CCC2(C)C(CCC3(C)C2CC=C2C4C(C)C(C)CCC4(C(=O)O)CCC23C)C1(C)C (stereo not drawn) [Compound in Example 20, ursolic acid octanoate]	31	46
CC1(C)CC[C@]2(C(=O)O)CC[C@]3(C)C(=CC[C@@H]4[C@@]5(C)CC[C@H](O)C(C)(C)[C@@H]5CC[C@]43C)[C@@H]2C1 [Compound in Example 22, oleanolic acid]	7	16
CCCCCCCC(=O)OC1CCC2(C)C(CCC3(C)C2CC=C2C4CC(C)(C)CCC4(C(=O)O)CCC23C)C1(C)C (stereo not drawn) [Compound in Example 24, oleanolic acid octanoate]	21	39
CC1(C)CC[C@]2(C)CC[C@]3(C)C(=CC[C@@H]4[C@@]5(C)CC[C@@H](O)[C@](C)(C(=O)O)[C@@H]5CC[C@]43C)[C@@H]2C1 [Compound in Example 26, α-boswellic acid]	10	19
CC(=O)OC1CCC2(C)C(CCC3(C)C2CC=C2C4CC(C)(C)CCC4(C)CCC23C)C1(C)C(=O)O (stereo not drawn) [Compound in Example 27, α-boswellic acid acetate]	21	29
C[C@H]1[C@H](C)CC[C@]2(C)CC[C@]3(C)C(=CC[C@@H]4[C@@]5(C)CC[C@@H](O)[C@](C)(C(=O)O)[C@@H]5CC[C@]43C)[C@H]12 [Compound in Example 29, β-boswellic acid]	11	23
CC(=O)OC1CCC2(C)C(CCC3(C)C2CC=C2C4C(C)C(C)CCC4(C)CCC23C)C1(C)C(=O)O (stereo not drawn) [Compound in Example 30, β-boswellic acid acetate]	14	29
C=C(C)[C@@H]1CC[C@]2(C(=O)O)CC[C@]3(C)[C@H](CC[C@@H]4[C@@]5(C)CC[C@H](O)C(C)(C)[C@@H]5CC[C@]43C)[C@@H]12 [Compound in Example 32, betulinic acid]	9	17
CC1(C)[C@@H](O)CC[C@]2(C)[C@H]3C(=O)C=C4[C@@H]5C[C@@](C)(C(=O)O)CC[C@]5(C)CC[C@@]4(C)[C@]3(C)CC[C@@H]12 [Compound in Example 34, glycyrrhetinic acid]	6	18
C[C@]12CC[C@H](O)CC1=CC[C@@H]1[C@@H]2CC[C@]2(C)C(=O)CC[C@@H]12 [Compound in Example 36, dihydroandrosterone]	9	28
CC(C)=CCC[C@@H](C)[C@H]1CC[C@H]2[C@@H]3CC=C4C[C@@H](O)CC[C@]4(C)[C@H]3CC[C@]12C [Compound in Example 38, desmosterol]	12	31
CC(C)CCC[C@@H](C)[C@H]1CC[C@H]2[C@@H]3CC=C4C[C@@H](O)CC[C@]4(C)[C@H]3CC[C@]12C [Compound in Example 40, cholesterol]	15	17
CCCCCCCCCCCCCCCCCC(=O)O[C@H]1CC[C@@]2(C)C(=CC[C@H]3[C@@H]4CC[C@H]([C@H](C)CCCC(C)C)[C@@]4(C)CC[C@@H]32)C1 [Compound in Example 41, cholesterol stearate]	26	39
CC[C@H](/C=C/[C@@H](C)[C@H]1CC[C@H]2[C@@H]3CC=C4C[C@@H](O)CC[C@]4(C)[C@H]3CC[C@]12C)C(C)C [Compound in Example 42, Stigmasterol]	8	24
CCCCCCCCCCCCCCCCCC(=O)O[C@H]1CC[C@@]2(C)C(=CC[C@H]3[C@@H]4CC[C@H]([C@H](C)/C=C/[C@@H](CC)C(C)C)[C@@]4(C)CC[C@@H]32)C1 [Compound in Example 43, Stigmasterol stearate]	31	41
CC(C)[C@H](C)CC[C@@H](C)[C@H]1CC[C@H]2[C@@H]3CC=C4C[C@@H](O)CC[C@]4(C)[C@H]3CC[C@]12C [Compound in Example 44, Campesterol]	11	21

Reference: patent US20150246058A1, “COMPOSITION FOR PREVENTING HAIR LOSS AND ACCELERATING HAIR GROWTH” (RNS CO., LTD., priority 2012, published 2015)
